Measurements published in patent US20260327204A1, “DEGRADERS OF CYCLIN-DEPENDENT KINASE 12/13, COMPOSITIONS, AND USES THEREOF” (ZHEJIANG UNIVERSITY, priority 2023, published 2026).

Tests used:
[1] = molecular target: CDK13 (Homo sapiens, UniProt Q14004); experiment: Western blot degradation of CDK13 (Example 3); assay type: cell-based; parameters: degradation of CDK12/13 protein in leukemia cells KASUMI-1, MV4-11, and Jurkat; endogenous in cells; conditions: DC50 classes, cell line not given; for DC50: read-out: CDK13 degradation Activity
Chain of CDK13 (Q14004 whole entry): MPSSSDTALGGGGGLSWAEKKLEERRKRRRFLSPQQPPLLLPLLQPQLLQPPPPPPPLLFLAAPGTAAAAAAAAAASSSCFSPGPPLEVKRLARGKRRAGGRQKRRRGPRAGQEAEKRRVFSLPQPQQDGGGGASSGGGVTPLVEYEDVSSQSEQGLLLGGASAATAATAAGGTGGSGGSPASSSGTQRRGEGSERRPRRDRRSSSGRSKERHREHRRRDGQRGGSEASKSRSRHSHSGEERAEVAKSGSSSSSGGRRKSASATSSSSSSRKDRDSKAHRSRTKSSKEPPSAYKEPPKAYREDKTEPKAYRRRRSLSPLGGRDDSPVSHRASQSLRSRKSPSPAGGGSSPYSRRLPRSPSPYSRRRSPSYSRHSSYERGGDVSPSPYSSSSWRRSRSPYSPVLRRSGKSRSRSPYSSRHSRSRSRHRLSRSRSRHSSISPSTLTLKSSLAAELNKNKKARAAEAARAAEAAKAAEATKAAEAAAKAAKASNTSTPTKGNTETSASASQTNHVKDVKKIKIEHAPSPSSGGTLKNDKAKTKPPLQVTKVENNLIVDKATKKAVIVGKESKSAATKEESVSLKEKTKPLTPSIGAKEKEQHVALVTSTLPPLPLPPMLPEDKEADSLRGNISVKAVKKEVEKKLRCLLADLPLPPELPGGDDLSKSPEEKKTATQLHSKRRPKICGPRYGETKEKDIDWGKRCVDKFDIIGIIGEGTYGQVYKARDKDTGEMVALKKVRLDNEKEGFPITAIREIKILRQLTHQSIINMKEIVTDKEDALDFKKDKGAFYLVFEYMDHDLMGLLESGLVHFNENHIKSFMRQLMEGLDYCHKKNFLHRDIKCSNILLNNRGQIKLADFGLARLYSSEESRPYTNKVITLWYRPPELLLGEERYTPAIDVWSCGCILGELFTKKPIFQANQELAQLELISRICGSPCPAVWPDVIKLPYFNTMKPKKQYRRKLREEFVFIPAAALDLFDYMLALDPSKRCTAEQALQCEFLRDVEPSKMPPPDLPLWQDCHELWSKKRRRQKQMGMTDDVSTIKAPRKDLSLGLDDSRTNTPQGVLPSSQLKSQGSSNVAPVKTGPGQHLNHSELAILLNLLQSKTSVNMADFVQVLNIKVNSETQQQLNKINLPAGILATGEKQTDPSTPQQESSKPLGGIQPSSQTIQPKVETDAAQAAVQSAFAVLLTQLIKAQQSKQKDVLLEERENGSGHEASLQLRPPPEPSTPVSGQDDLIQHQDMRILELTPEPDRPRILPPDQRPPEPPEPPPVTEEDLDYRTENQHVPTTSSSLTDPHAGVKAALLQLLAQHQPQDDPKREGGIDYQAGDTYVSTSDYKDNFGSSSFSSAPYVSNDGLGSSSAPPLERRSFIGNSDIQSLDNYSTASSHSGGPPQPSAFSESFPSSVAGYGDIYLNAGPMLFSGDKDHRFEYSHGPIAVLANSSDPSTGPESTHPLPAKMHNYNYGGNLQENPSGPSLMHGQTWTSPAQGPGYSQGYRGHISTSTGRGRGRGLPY
Chain of CDK13 (O75909 whole entry partner): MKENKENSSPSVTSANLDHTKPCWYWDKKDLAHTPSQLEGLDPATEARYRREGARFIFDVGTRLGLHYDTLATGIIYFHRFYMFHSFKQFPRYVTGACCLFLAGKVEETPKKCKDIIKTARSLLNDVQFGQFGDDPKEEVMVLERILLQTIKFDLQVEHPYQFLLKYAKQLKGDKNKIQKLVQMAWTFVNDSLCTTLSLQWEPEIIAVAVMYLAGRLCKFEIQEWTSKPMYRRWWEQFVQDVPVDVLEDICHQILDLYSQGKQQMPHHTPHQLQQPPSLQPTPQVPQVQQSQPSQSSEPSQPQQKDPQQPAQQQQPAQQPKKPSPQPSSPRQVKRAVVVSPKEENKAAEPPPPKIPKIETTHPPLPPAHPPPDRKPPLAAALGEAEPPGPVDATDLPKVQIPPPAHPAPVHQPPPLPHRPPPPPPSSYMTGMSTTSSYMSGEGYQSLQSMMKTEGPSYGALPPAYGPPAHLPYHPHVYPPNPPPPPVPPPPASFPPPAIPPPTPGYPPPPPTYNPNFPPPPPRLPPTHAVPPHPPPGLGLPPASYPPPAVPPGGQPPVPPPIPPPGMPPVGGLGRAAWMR

[2] = molecular target: CDK12 (Homo sapiens, UniProt Q9NYV4); experiment: Western blot degradation of CDK12 (Example 3); assay type: cell-based; parameters: degradation of CDK12/13 protein in leukemia cells KASUMI-1, MV4-11, and Jurkat; endogenous in cells; conditions: DC50 classes, cell line not given; for DC50: read-out: CDK12 degradation Activity
Chain of CDK12 (Q9NYV4 whole entry): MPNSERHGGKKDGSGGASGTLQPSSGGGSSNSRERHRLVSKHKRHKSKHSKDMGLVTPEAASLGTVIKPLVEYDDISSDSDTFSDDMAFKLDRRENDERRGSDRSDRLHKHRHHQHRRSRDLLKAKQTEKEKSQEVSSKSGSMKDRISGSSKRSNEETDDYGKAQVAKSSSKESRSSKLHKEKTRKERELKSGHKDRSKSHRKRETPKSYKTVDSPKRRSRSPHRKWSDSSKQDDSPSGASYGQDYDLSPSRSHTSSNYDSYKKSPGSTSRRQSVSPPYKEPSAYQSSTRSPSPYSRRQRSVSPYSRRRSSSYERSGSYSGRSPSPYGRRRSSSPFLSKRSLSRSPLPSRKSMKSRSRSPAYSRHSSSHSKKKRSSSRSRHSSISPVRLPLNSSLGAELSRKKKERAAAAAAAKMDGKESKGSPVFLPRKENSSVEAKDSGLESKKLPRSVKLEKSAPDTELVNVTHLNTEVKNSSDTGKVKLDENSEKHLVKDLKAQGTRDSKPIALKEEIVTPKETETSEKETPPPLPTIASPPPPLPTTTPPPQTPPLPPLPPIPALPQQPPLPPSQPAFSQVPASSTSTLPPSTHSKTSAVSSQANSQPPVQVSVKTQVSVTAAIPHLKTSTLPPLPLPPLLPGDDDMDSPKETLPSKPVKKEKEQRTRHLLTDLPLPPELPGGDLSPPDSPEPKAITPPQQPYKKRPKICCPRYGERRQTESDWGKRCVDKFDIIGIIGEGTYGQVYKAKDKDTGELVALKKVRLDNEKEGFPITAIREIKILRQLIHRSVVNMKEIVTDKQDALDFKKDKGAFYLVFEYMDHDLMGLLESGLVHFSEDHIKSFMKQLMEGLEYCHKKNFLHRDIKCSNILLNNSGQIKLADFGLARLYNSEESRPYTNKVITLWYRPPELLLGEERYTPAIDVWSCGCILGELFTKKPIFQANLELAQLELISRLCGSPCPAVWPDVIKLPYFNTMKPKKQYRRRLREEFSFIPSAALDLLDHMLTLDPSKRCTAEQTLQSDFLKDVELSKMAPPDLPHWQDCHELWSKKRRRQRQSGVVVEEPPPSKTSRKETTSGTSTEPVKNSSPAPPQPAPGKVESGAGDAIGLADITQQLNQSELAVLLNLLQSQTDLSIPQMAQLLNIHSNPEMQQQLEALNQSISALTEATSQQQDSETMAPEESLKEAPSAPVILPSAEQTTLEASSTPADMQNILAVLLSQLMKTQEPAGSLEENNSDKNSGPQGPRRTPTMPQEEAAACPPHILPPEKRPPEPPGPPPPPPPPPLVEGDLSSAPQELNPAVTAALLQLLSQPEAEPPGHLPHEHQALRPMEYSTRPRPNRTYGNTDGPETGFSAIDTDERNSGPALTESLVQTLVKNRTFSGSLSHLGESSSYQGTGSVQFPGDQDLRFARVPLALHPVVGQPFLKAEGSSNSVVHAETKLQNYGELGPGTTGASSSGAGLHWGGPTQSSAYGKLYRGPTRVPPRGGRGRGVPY
Chain of CDK12 (O75909 whole entry partner): as the sequence (O75909 whole entry partner) above

SMILES | DC50 [1] | DC50 [2] | CDK13 degradation Activity [1] | CDK12 degradation Activity [2]
CC(=O)N(c1ccc(-c2ccc(OC3CCN(CC(=O)N[C@H](C(=O)N4C[C@H](O)C[C@H]4C(=O)N[C@@H](C)c4ccc(-c5scnc5C)cc4)C(C)(C)C)CC3)nc2)cc1)[C@H]1CC[C@H](Nc2ncc3ccccc3n2)CC1 [Formula 135, (2S,4R)-1-((S)-3,3-dimethyl-2-(2-(4-((5-(4-(N-((1R,4R)-4-(quinazolin-2-ylamino)cyclohexyl)acetamido)phenyl)pyridin-2-yl)oxy)piperidin-1-yl)acetamido)butanoyl)-4-hydroxy-N—((S)-1-(4-(4-methylthiazol-5-yl)phenyl)ethyl)pyrrolidine-2-carboxamide] | 1000 to 3000 nM | 500 to 1000 nM |  | 
CC(=O)N(c1ccc(-c2cnc(OC3CCN(CC(=O)N[C@H](C(=O)N4C[C@H](O)C[C@H]4C(=O)N[C@@H](C)c4ccc(-c5scnc5C)cc4)C(C)(C)C)CC3)nc2)cc1)[C@H]1CC[C@H](Nc2ncc3ccccc3n2)CC1 [Formula 136, (2S,4R)-1-((S)-3,3-dimethyl-2-(2-(4-((5-(4-(N-((1R,4R)-4-(quinazolin-2-ylamino)cyclohexyl)acetamido)phenyl)pyrimidin-2-yl)oxy)piperidin-1-yl)acetamido)butanoyl)-4-hydroxy-N—((S)-1-(4-(4-methylthiazol-5-yl)phenyl)ethyl)pyrrolidine-2-carboxamide] | 500 to 1000 nM | 500 to 1000 nM |  | 
CC(=O)N(c1ccc(-c2ccc(N3CCC(C(=O)N[C@H](C(=O)N4C[C@H](O)C[C@H]4C(=O)N[C@@H](C)c4ccc(-c5scnc5C)cc4)C(C)(C)C)CC3)nc2)cc1)[C@H]1CC[C@H](Nc2ncc3ccccc3n2)CC1 [Formula 137, N—((S)-1-((2S,4R)-4-hydroxy-2-(((S)-1-(4-(4-methylthiazol-5-yl)phenyl)ethyl)carbamoyl)pyrrolidin-1-yl)-3,3-dimethyl-1-oxobutan-2-yl)-1-(5-(4-(N-((1R,4R)-4-(quinazolin-2-ylamino)cyclohexyl)acetamido)phenyl)pyridin-2-yl)piperidine-4-carboxamide] | 3000 to 10000 nM | 3000 to 10000 nM |  | 
CC(=O)N(c1ccc(-c2cnc(N3CCC(C(=O)N[C@H](C(=O)N4C[C@H](O)C[C@H]4C(=O)N[C@@H](C)c4ccc(-c5scnc5C)cc4)C(C)(C)C)CC3)nc2)cc1)[C@H]1CC[C@H](Nc2ncc3ccccc3n2)CC1 [Formula 138, N—((S)-1-((2S,4R)-4-hydroxy-2-(((S)-1-(4-(4-methylthiazol-5-yl)phenyl)ethyl)carbamoyl)pyrrolidin-1-yl)-3,3-dimethyl-1-oxobutan-2-yl)-1-(5-(4-(N-((1R,4R)-4-(quinazolin-2-ylamino)cyclohexyl)acetamido)phenyl)pyrimidin-2-yl)piperidine-4-carboxamide] |  | 1000 to 3000 nM | − | 
CC(=O)N(c1ccc(-c2cnn(C3CCN(CC(=O)N[C@H](C(=O)N4C[C@H](O)C[C@H]4C(=O)N[C@@H](C)c4ccc(-c5scnc5C)cc4)C(C)(C)C)CC3)c2)cc1)[C@H]1CC[C@H](Nc2ncc3ccccc3n2)CC1 [Formula 139] | 1000 to 3000 nM | 1000 to 3000 nM |  | 
CC(=O)N(c1ccc(-c2ccc(N3C[C@@H]4C[C@H]3CN4CC(=O)N[C@H](C(=O)N3C[C@H](O)C[C@H]3C(=O)N[C@@H](C)c3ccc(-c4scnc4C)cc3)C(C)(C)C)nc2)cc1)[C@H]1CC[C@H](Nc2ncc3ccccc3n2)CC1 [Formula 141, (2S,4R)-1-((S)-3,3-dimethyl-2-(2-((1S,4S)-5-(5-(4-(N-((1R,4S)-4-(quinazolin-2-ylamino)cyclohexyl)acetamido)phenyl)pyridin-2-yl)-2,5-diazabicyclo[2.2.1]heptan-2-yl)acetamido)butanoyl)-4-hydroxy-N—((S)-1-(4-(4-methylthiazol-5-yl)phenyl)ethyl)pyrrolidine-2-carboxamide] | 100 to 500 nM | < 100 nM |  | 
CC(=O)N(c1ccc(-c2cnc(N3C[C@@H]4C[C@H]3CN4CC(=O)N[C@H](C(=O)N3C[C@H](O)C[C@H]3C(=O)N[C@@H](C)c3ccc(-c4scnc4C)cc3)C(C)(C)C)nc2)cc1)[C@H]1CC[C@H](Nc2ncc3ccccc3n2)CC1 [Formula 142, (2S,4R)-1-((S)-3,3-dimethyl-2-(2-((1S,4S)-5-(5-(4-(N-((1R,4S)-4-(quinazolin-2-ylamino)cyclohexyl)acetamido)phenyl)pyrimidin-2-yl)-2,5-diazabicyclo[2.2.1]heptan-2-yl)acetamido)butanoyl)-4-hydroxy-N—((S)-1-(4-(4-methylthiazol-5-yl)phenyl)ethyl)pyrrolidine-2-carboxamide] | < 100 nM | < 100 nM |  | 
CC(=O)N(c1ccc(-c2ccc(N3C[C@H]4C[C@@H]3CN4CC(=O)N[C@H](C(=O)N3C[C@H](O)C[C@H]3C(=O)N[C@@H](C)c3ccc(-c4scnc4C)cc3)C(C)(C)C)nc2)cc1)[C@H]1CC[C@H](Nc2ncc3ccccc3n2)CC1 [Formula 143, (2S,4R)-1-((S)-3,3-dimethyl-2-(2-((1R,4R)-5-(5-(4-(N-((1R,4S)-4-(quinazolin-2-ylamino)cyclohexyl)acetamido)phenyl)pyridin-2-yl)-2,5-diazabicyclo[2.2.1]heptan-2-yl)acetamido)butanoyl)-4-hydroxy-N—((S)-1-(4-(4-methylthiazol-5-yl)phenyl)ethyl)pyrrolidine-2-carboxamide] | 100 to 500 nM | 100 to 500 nM |  | 
CC(=O)N(c1ccc(-c2cnc(N3C[C@H]4C[C@@H]3CN4CC(=O)N[C@H](C(=O)N3C[C@H](O)C[C@H]3C(=O)N[C@@H](C)c3ccc(-c4scnc4C)cc3)C(C)(C)C)nc2)cc1)[C@H]1CC[C@H](Nc2ncc3ccccc3n2)CC1 [Formula 144, (2S,4R)-1-((S)-3,3-dimethyl-2-(2-((1R,4R)-5-(5-(4-(N-((1r,4S)-4-(quinazolin-2-ylamino)cyclohexyl)acetamido)phenyl)pyrimidin-2-yl)-2,5-diazabicyclo[2.2.1]heptan-2-yl)acetamido)butanoyl)-4-hydroxy-N—((S)-1-(4-(4-methylthiazol-5-yl)phenyl)ethyl)pyrrolidine-2-carboxamide] | 100 to 500 nM | < 100 nM |  | 
CC(=O)N(c1ccc(-c2ccc(N3CCN(C(=O)N[C@H](C(=O)N4C[C@H](O)CC4C(=O)N[C@@H](C)c4ccc(-c5scnc5C)cc4)C(C)(C)C)CC3)nc2)cc1)[C@H]1CC[C@H](Nc2ncc3ccccc3n2)CC1 (stereo partly shown) [Formula 145] | 3000 to 10000 nM |  |  | −
CC(=O)N(c1ccc(-c2cnc(N3CCN(C(=O)N[C@H](C(=O)N4C[C@H](O)C[C@H]4C(=O)N[C@@H](C)c4ccc(-c5scnc5C)cc4)C(C)(C)C)CC3)nc2)cc1)[C@H]1CC[C@H](Nc2ncc3ccccc3n2)CC1 [Formula 146, N—((S)-1-((2S,4R)-4-hydroxy-2-(((S)-1-(4-(4-methylthiazol-5-yl)phenyl)ethyl)carbamoyl)pyrrolidin-1-yl)-3,3-dimethyl-1-oxobutan-2-yl)-4-(5-(4-(N-((1R,4R)-4-(quinazolin-2-ylamino)cyclohexyl)acetamido)phenyl)pyrimidin-2-yl)piperazine-1-carboxamide] | 3000 to 10000 nM | 3000 to 10000 nM |  | 
